Experimental data: ChEMBL document CHEMBL1152446, “Identification of an orally efficacious matrix metalloprotease 12 inhibitor for potential treatment of asthma” (J Med Chem, 2009)
Activity calls are given as the source filed them. The calls are words filed in the database; no cut-off is given here.

Experiments:
[1] = in vitro; settings: human, liver microsomes
[2] = target: Collagenase 3 (Homo sapiens, UniProt P45452); assay: Inhibition of human recombinant MMP13
[3] = in vitro; settings: rat, liver microsomes
[4] = Metabolic stability in C57BL/6 mouse liver microsome assessed as half life; format: ADME; settings: liver microsomes
[5] = system: Mus musculus; assay: Inhibition of human recombinant MMP12-induced ear-edema in C57BL/6 mouse assessed as decrease in ear edema at 30 mg/kg, po bid administered 2 hrs post challenge; format: functional; settings: C57BL/6, 2 h
[6] = target: Neutrophil collagenase (Homo sapiens, UniProt P22894); assay: Inhibition of human MMP8
Sequence of Neutrophil collagenase (P22894 whole entry): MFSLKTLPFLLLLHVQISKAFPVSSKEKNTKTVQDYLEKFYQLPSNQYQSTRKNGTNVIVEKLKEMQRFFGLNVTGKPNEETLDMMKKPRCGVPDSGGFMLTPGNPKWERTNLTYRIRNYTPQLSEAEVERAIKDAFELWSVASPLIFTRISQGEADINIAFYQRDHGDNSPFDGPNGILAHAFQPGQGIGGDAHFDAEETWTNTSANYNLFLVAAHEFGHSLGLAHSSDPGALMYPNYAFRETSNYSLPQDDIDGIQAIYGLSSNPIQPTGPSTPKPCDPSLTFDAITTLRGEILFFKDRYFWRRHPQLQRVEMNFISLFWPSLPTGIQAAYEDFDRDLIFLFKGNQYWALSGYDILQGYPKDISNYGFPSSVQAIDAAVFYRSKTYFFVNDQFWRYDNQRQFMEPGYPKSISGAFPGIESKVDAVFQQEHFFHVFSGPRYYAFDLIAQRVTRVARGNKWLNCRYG

[7] = target: Matrilysin (Homo sapiens, UniProt P09237); assay: Inhibition of human MMP7
Sequence of Matrilysin (P09237 whole entry): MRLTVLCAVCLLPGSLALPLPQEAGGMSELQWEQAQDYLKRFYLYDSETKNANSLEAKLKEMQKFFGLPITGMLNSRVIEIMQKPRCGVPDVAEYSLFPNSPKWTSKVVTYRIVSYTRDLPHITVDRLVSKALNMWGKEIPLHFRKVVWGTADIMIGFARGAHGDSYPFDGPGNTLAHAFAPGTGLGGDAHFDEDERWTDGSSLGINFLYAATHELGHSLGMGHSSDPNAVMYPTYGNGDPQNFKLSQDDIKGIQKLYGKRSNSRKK

[8] = target: Stromelysin-1 (Homo sapiens, UniProt P08254); assay: Inhibition of human MMP3
Sequence of Stromelysin-1 (P08254 whole entry): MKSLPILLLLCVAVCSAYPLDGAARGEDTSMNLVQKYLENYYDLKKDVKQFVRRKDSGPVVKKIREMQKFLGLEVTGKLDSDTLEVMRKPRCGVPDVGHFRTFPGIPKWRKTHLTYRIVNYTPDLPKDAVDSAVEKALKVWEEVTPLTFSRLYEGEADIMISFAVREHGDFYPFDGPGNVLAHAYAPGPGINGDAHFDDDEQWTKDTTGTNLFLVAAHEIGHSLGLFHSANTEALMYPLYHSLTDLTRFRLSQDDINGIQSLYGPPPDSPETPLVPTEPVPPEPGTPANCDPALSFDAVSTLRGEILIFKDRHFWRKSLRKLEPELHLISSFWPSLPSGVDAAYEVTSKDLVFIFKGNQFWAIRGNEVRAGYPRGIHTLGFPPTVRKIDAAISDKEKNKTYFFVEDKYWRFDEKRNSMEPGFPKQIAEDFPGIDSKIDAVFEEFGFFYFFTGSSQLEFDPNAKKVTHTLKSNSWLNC

[9] = system: Mus musculus; assay: Inhibition of human recombinant MMP12-induced ear-edema in C57BL/6 mouse assessed as decrease in ear edema at 10 mg/kg, po bid administered 2 hrs post challenge; format: functional; settings: C57BL/6, 2 h
[10] = Clearance in C57BL/6 mouse at 2 mg/kg, iv; format: ADME, organism-based; parameters: dose 2 mg/kg, route intravenous; settings: in vivo
[11] = system: Ovis aries; assay: Inhibition of EAR phase of bronchoconstrictive in Ascaris suum challenged sheep asthma model at 10 mg/kg, po twice the day prior to allergen challenge and third dose 1 hr prior to allergen challenge; format: functional, organism-based; parameters: dose 10 mg/kg; settings: Lung
[12] = Oral bioavailability in C57BL/6 mouse at 10 mg/kg; format: ADME, organism-based; settings: in vivo
[13] = target: Cytochrome P450 3A4 (Homo sapiens, UniProt P08684); assay: Inhibition of CYP3A4; format: ADME
Sequence of Cytochrome P450 3A4 (P08684 whole entry, the tested form may be a part): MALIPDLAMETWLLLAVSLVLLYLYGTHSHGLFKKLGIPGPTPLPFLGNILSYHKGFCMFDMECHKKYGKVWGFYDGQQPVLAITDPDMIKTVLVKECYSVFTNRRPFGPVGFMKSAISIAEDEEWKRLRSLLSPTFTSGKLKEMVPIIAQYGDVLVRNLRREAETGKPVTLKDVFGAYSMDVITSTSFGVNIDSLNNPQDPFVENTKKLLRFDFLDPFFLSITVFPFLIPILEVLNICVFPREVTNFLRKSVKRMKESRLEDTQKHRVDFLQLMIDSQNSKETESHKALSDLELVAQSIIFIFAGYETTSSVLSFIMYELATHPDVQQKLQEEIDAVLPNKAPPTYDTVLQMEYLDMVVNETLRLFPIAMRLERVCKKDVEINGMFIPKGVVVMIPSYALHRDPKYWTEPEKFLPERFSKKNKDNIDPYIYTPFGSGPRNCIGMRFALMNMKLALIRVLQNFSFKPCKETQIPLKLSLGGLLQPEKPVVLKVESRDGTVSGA

[14] = target: Disintegrin and metalloproteinase domain-containing protein 17 (Homo sapiens, UniProt P78536); assay: Inhibition of human TACE
[15] = target: A disintegrin and metalloproteinase with thrombospondin motifs 5 (Homo sapiens, UniProt Q9UNA0); assay: Inhibition of human Aggrecanase 2
Sequence of A disintegrin and metalloproteinase with thrombospondin motifs 5 (Q9UNA0 whole entry): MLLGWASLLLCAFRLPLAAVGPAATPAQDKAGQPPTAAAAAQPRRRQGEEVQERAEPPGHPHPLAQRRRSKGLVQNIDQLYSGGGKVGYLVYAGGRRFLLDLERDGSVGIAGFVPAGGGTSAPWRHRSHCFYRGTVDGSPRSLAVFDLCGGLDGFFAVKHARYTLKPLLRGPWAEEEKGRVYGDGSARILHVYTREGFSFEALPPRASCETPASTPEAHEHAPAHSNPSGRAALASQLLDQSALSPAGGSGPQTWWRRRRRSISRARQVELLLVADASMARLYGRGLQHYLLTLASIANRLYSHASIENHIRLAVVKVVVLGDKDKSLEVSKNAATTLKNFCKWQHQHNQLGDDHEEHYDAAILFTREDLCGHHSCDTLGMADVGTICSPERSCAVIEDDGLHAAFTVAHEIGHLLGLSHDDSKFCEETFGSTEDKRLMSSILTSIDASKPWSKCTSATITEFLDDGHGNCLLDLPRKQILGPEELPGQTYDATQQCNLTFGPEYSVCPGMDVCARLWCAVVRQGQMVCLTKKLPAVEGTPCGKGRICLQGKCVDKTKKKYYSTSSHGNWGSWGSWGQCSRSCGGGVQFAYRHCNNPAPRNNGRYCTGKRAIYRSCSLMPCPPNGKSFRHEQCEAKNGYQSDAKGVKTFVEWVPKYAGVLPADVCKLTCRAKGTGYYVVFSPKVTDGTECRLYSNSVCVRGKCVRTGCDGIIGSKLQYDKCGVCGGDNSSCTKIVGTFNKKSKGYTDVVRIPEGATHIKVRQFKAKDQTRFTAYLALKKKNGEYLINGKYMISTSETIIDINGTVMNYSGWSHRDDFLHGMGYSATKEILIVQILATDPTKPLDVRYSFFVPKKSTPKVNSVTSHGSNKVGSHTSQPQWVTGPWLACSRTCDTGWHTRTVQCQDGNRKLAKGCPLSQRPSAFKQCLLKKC

[16] = target: Voltage-gated inwardly rectifying potassium channel KCNH2 (Homo sapiens, UniProt Q12809); assay: Inhibition of human ERG at 10 uM by ion works assay
[17] = Volume of distribution at steady state in C57BL/6 mouse at 2 mg/kg, iv; format: ADME, organism-based; parameters: dose 2 mg/kg, route intravenous; settings: in vivo, read-out: Vdss
[18] = target: Cytochrome P450 2C9 (Homo sapiens, UniProt P11712); assay: Inhibition of CYP2C9; format: ADME
[19] = Inhibition of sheep MMP12; parameters: species or system Ovis aries
[20] = target: 72 kDa type IV collagenase (Homo sapiens, UniProt P08253); assay: Inhibition of human MMP2
Sequence of 72 kDa type IV collagenase (P08253 whole entry): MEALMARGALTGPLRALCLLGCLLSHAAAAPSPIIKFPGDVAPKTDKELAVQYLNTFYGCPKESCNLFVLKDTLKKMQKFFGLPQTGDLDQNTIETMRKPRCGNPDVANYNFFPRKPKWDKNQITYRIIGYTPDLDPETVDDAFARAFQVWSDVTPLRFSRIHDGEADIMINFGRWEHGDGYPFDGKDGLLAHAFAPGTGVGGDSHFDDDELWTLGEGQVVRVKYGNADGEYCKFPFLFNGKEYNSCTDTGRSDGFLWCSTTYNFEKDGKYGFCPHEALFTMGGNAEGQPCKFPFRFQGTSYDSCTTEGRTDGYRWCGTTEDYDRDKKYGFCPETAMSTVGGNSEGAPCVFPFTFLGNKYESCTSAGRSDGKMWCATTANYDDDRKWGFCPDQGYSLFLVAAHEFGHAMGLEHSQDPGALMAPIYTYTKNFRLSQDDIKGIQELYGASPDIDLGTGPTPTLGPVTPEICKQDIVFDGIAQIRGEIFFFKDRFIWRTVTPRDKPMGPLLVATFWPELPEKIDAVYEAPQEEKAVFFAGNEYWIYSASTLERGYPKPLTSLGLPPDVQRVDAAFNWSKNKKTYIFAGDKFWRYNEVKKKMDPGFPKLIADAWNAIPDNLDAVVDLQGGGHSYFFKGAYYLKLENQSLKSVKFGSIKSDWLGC

[21] = target: Macrophage metalloelastase (Rattus norvegicus, UniProt Q63341); assay: Inhibition of rat MMP12
Sequence of Macrophage metalloelastase (Rattus norvegicus, UniProt Q63341) (Q63341 whole entry): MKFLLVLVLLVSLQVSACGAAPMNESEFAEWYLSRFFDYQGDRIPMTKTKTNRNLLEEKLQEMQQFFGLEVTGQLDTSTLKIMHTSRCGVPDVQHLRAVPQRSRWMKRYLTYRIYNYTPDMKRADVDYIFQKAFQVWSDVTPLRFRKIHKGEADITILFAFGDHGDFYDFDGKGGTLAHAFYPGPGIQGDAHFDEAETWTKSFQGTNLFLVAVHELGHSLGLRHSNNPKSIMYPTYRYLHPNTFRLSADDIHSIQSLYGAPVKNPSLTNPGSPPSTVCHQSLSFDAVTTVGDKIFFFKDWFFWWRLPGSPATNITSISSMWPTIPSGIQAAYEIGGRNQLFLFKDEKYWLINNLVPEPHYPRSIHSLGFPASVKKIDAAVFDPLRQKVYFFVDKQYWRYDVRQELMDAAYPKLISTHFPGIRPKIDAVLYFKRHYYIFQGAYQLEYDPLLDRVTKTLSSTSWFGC

[22] = system: Mus musculus; assay: Inhibition of human recombinant MMP12-induced ear-edema in C57BL/6 mouse assessed as decrease in ear edema at 3 mg/kg, po bid administered 2 hrs post challenge; format: functional; settings: C57BL/6, 2 h
[23] = target: Matrix metalloproteinase-14 (Homo sapiens, UniProt P50281); assay: Inhibition of human MMP14
[24] = target: Cytochrome P450 2D6 (Homo sapiens, UniProt P10635); assay: Inhibition of CYP2D6; format: ADME
Sequence of Cytochrome P450 2D6 (P10635 whole entry): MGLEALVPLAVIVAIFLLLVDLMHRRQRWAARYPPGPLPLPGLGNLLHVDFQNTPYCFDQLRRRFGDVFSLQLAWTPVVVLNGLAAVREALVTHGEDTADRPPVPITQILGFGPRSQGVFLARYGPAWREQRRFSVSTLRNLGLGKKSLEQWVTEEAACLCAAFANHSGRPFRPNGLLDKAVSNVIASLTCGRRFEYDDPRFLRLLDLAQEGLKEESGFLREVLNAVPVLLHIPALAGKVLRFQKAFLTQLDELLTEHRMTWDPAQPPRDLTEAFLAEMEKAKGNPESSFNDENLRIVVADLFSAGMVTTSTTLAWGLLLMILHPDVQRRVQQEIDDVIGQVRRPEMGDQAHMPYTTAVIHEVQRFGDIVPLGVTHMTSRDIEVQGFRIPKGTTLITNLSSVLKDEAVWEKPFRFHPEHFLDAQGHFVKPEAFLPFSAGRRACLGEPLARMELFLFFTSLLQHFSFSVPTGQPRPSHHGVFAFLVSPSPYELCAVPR

[25] = Half life in C57BL/6 mouse at 10 mg/kg, po; format: ADME, organism-based; parameters: dose 10 mg/kg, route oral; settings: in vivo
[26] = target: Matrix metalloproteinase-9 (Homo sapiens, UniProt P14780); assay: Inhibition of human MMP9
[27] = target: Interstitial collagenase (Homo sapiens, UniProt P03956); assay: Inhibition of human MMP1
[28] = target: A disintegrin and metalloproteinase with thrombospondin motifs 4 (Homo sapiens, UniProt O75173); assay: Inhibition of human Aggrecanase 1
[29] = system: Ovis aries; assay: Inhibition of carbachol-induced airway hyper-responsiveness in Ascaris suum challenged sheep asthma model at 10 mg/kg, po; format: functional, organism-based; parameters: dose 10 mg/kg
[30] = target: Macrophage metalloelastase (Mus musculus, UniProt P34960); assay: Inhibition of mouse MMP12
Sequence of Macrophage metalloelastase (Mus musculus, UniProt P34960) (P34960 whole entry): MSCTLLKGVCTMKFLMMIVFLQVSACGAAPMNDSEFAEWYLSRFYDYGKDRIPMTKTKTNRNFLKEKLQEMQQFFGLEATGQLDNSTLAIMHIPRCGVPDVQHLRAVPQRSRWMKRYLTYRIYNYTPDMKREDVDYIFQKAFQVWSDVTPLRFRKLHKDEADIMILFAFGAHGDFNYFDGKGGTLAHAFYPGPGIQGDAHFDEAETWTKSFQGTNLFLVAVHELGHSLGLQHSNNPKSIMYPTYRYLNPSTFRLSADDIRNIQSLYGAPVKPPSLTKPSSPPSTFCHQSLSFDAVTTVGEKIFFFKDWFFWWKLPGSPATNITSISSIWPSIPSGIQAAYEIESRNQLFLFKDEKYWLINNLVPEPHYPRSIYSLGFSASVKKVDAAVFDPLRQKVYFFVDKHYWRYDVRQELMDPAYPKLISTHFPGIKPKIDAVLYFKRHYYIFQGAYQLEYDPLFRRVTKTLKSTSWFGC

[31] = Cmax in C57BL/6 mouse at 10 mg/kg, po; format: ADME, organism-based; parameters: dose 10 mg/kg, route oral; settings: in vivo
[32] = Oral bioavailability in C57BL/6 mouse at 30 mg/kg; format: ADME, organism-based; settings: in vivo
[33] = Half life in C57BL/6 mouse at 30 mg/kg, po; format: ADME, organism-based; parameters: dose 30 mg/kg, route oral; settings: in vivo
[34] = Cmax in C57BL/6 mouse at 30 mg/kg, po; format: ADME, organism-based; parameters: dose 30 mg/kg, route oral; settings: in vivo

Which half-life [1] does the source give for `CC(C)OC(=O)Nc1ccc2c(c1)sc1cc(S(=O)(=O)N[C@H](C(=O)O)C(C)C)ccc12` here?
The half-life was greater than 30 min.

What about the IC50 [2] of the same compound?
The IC50 was 0.147 µM.

And the half-life [3]?
Its half-life is greater than 30 min.

And the half-life [4]?
The half-life was greater than 30 min.

With `CCOC(=O)Nc1ccc2c(c1)sc1cc(S(=O)(=O)N[C@H](C(=O)O)C(C)C)ccc12` as the compound, how does the half-life [1] read?
Its half-life is greater than 30 min.

What about the IC50 [2] of the same compound?
Its IC50 is 0.056 µM.

And the half-life [3]?
The half-life was greater than 30 min.

And the half-life [4]?
Its half-life is greater than 30 min.

Which half-life [1] does the source give for `COC(=O)Nc1ccc2c(c1)oc1cc(S(=O)(=O)N[C@H](C(=O)O)C(C)C)ccc12` here?
The half-life was greater than 30 min.

What about the IC50 [2] of the same compound?
Its IC50 is 0.505 µM.

And the half-life [3]?
Its half-life is greater than 30 min.

And the half-life [4]?
Its half-life is greater than 30 min.

Which results are given for `CC(C)[C@H](NS(=O)(=O)c1ccc2c(c1)oc1ccc(N3CCOC3=O)cc12)C(=O)O`?
inhibition in vivo at 30 mg/kg [5]: 40.3%; IC50 [6]: 0.037 µM; IC50 [7]: 7.83 µM; IC50 [8]: 0.3 µM; half-life [1]: > 30 min; inhibition in vivo at 10 mg/kg [9]: 35.1%; clearance [10]: 18 mL/min/kg; inhibition [11]: Active; bioavailability [12]: 17%; inhibition (INH) [13]: Not Active; IC50 [14]: 40 µM; IC50 [15]: 22.6 µM; inhibition (INH) [16]: Not Active; IC50 [2]: 0.106 µM; Vd [17]: 0.8 L/kg; inhibition (INH) [18]: Not Active; IC50 [19]: 0.002 µM; IC50 [20]: 0.066 µM; half-life [3]: > 30 min; IC50 [21]: 0.072 µM; inhibition in vivo at 3 mg/kg [22]: 25.2%; IC50 [23]: 2.25 µM; half-life [4]: > 30 min; inhibition (INH) [24]: Not Active; half-life [25]: 186 min; IC50 [26]: 0.318 µM; IC50 [27]: 5.46 µM; IC50 [28]: 18 µM; inhibition [29]: Active; IC50 [30]: 0.027 µM; Cmax [31]: 456 ng/mL

With `Cc1ccc(OC(=O)Nc2ccc3c(c2)sc2cc(S(=O)(=O)N[C@H](C(=O)O)C(C)C)ccc23)cc1` as the compound, how does the half-life [1] read?
Its half-life is greater than 30 min.

What about the IC50 [2] of the same compound?
Its IC50 is 0.235 µM.

What about the half-life [3] of the same compound?
Its half-life is greater than 30 min.

And the half-life [4]?
Its half-life is greater than 30 min.

With `COC(=O)Nc1ccc2sc3cc(S(=O)(=O)N[C@@H](C(=O)O)C(C)C)ccc3c2c1` as the compound, how does the half-life [1] read?
The half-life was greater than 30 min.

And the clearance [10]?
The clearance was 59.9 mL/min/kg.

And the bioavailability [32]?
The bioavailability was 19%.

And the IC50 [2]?
The IC50 was 0.00122 µM.

What about the Vd [17] of the same compound?
The Vd was 3.7 L/kg.

What about the half-life [3] of the same compound?
Its half-life is greater than 30 min.

And the half-life [4]?
The half-life was greater than 30 min.

What about the half-life [33] of the same compound?
Its half-life is 276 min.

What about the Cmax [34] of the same compound?
Its Cmax is 738 ng/mL.

With `CC(C)[C@H](NS(=O)(=O)c1ccc2c(c1)sc1cc(NC(=O)Oc3ccccc3)ccc12)C(=O)O` as the compound, how does the half-life [1] read?
Its half-life is greater than 30 min.

What about the IC50 [2] of the same compound?
The IC50 was 0.225 µM.

And the half-life [3]?
Its half-life is greater than 30 min.

And the half-life [4]?
Its half-life is greater than 30 min.

Which half-life [1] does the source give for `CC(C)[C@H](NS(=O)(=O)c1ccc2c(c1)sc1cc(NC(=O)NCCc3cccs3)ccc12)C(=O)O` here?
The half-life was greater than 30 min.

What about the IC50 [2] of the same compound?
The IC50 was 0.456 µM.

And the half-life [3]?
Its half-life is greater than 30 min.

What about the half-life [4] of the same compound?
The half-life was greater than 30 min.

With `CC(C)[C@H](NS(=O)(=O)c1ccc2c(c1)oc1cc(NC(=O)NCCc3cccs3)ccc12)C(=O)O` as the compound, how does the half-life [1] read?
The half-life was greater than 30 min.

What about the IC50 [2] of the same compound?
Its IC50 is 0.187 µM.

What about the half-life [3] of the same compound?
The half-life was greater than 30 min.

And the half-life [4]?
Its half-life is greater than 30 min.
